Test results taken from US9549906B2, “Compositions and methods for treatment of ocular inflammation and/or pain” (priority 2013, dated 2017).
“Also recorded” adds a separate entry of the source.

What was measured:
[1] = system: endotoxin-induced uveitis (EIU) model; assay: Endotoxin-induced uveitis (EIU) in rats, intravital microscopy of leukocyte-endothelial adhesion; format: in vivo, male Lewis rats
Description: The endotoxin-induced uveitis (EIU) model is a widely used animal model of human bacterially-derived uveitis, involving inflammation of the uveal tract. The uveal tract comprises the middle layer of the eye, including the iris, ciliary body and […].
EIU was induced in male Lewis rats by intravitreal injection of 100 ng of lipopolysaccharide (LPS, Escherichia coli) in saline. Treatments of the cannabinoid 2 receptor (CB2R) agonist, HU-433 were administered, in the presence and absence of the selective antagonist, AM630. Cannabinoid treatments involved intravenous (i.v.) HU-433 (0.001-1 mg/kg), AM630 (2.5 mg/kg i.v.) and AM630+HU-433, administered 15 minutes after intravitreal injection of LPS. Intravital microscopy (IVM) was used to observe leukocyte-endothelial adhesion each hour after induction of EIU for a duration of 6 hours.
Data in FIG. 1 was collected from experiments using an animal model of ocular inflammation called endotoxin-induced uveitis. […] The level of inflammation is quantified by counting the number of adherent leukocytes in the iris microcirculation. Leukocytes must adhere to the microvasculature for more than 30 s (measured as adherent leukocytes per mm^2). Imaging was conducted in a minimum of 4 quadrants within the eye, 4 vessels each quadrant, 6 hours after inflammation was induced.
The strain of animals chosen for these experiments was based on preliminary testing conducted and published literature (see, for example: Toguri et al., 2014). The strain of mice chosen was BALB/c and Lewis rats were used. Animals were anesthetised prior to induction of uveitis. Mice were anesthetized with 5% isoflurane in 100% oxygen. Rats were anesthetized with 65 mg·kg^−1 of sodium pentobarbital. Depth of anesthesia was monitored via toe pinch test. The head of the animal was immobilized, and the sclera of the left eye was punctured with a 30-gauge needle at the dorsonasal quadrant at approximately the level of the equator. Mice received a total of 250 ng of LPS (E. coli 026:B6; Sigma-Aldrich, Oakville, ON, Canada) in 2 μl of sterile 0.9% saline. Rats received a total of 100 ng of LPS in 5 μl of sterile 0.9% saline. Intravitreal injections were made under microscopic control with a Hamilton syringe (Hamilton Company, Reno, Nev., USA), with a 30 G1/6 needle. To avoid touching the lens or causing any damage to the eye, the tip of the needle was directed towards the posterior pole and only the bevelled tip (2-3 mm) entered the vitreal cavity. The needle was held in place after injection for 5 seconds to avoid leakage of the LPS from the site of injection (sclerostomy). Sclerostomy was closed by tissue adhesive to prevent any leakage. Animals with bleeding or swelling post injection were excluded from the study.

[2] = system: corneal hypersensitivity to capsaicin; assay: Corneal hyperalgesia model (silver nitrate cauterization), blinks to topical 1 μM capsaicin; format: in vivo, murine
Text: The chemical cauterization model of corneal inflammation and hyperalgesia is an established model to look at corneal sensitization and pain. Chemical cauterization of the murine cornea using topical silver nitrate produces non-specific inflammation followed by chronic behavioral sensitization to subsequent chemical stimuli (modified from Wenk & Honda, 2003).
The corneal reflex blink test provides a behavioral assessment of corneal sensitization and hyperalgesia (decreased pain threshold). The hyperalgesia (defined as increased responsiveness to painful stimuli) is gauged by quantifying the number and frequency of a protective blinking response in the treated eye (stimulus-induced blinking) relative to control non-sensitized eyes (Wenk and Honda 2003). Anti-inflammatory agents and agents that act at targets on nociceptive nerves can reduce development of corneal sensitization and hyperalgesic activity (reduced protective blinking response in response to noxious irritant).
Using a model characterized by Wenk & Honda, 2003, chemical cauterization using silver nitrate application to the cornea was used to create a corneal hypersensitivity model. Hypersensitivity was determined by assessing blinks to an ocular topical application of 1 μM capsaicin. The blink response is one measure of the level of corneal hyperalgesia. Increased blinking in response to capsaicin in a cauterized eye indicates a higher level of pain (FIG. 9).
In a model of corneal hyperalgesia, chemical cauterization of the cornea produces corneal epithelial damage, corneal edema and inflammation. […] The effect of repeated dosing with the CB2 allosteric modulator, CBD-DMH, or the cannabinoid Δ^9THC that acts as an agonist at CB1 and CB2 receptors, was tested to determine if these agents could prevent the development of hyperalgesia. Animals were videoed before and after capsaicin administration using a handheld device and video images were analyzed off-line by an observer blinded to the treatment. […]

[3] = cited from earlier work; for stability: acidic solutions, heat, air and light
[4] = target: T1, CB2 (Homo sapiens, UniProt P34972); assay: In vitro CB2-dependent G protein signalling, overall conclusion (ERK, PLCβ3, cAMP); format: cell-based; parameters: expressed in transfected cells; host or cells: HEK 293A cells (transient transfection)
T1 sequence (P34972 whole entry): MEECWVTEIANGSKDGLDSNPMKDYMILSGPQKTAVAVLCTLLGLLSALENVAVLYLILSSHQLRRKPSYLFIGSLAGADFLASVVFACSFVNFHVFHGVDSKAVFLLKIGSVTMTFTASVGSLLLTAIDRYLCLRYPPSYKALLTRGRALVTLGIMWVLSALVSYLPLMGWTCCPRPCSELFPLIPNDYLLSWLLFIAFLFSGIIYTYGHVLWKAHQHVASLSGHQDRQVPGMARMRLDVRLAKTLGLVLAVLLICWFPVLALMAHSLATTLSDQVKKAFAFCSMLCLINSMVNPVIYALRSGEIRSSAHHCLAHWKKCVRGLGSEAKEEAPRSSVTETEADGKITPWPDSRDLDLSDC
Description: Following 30 min treatment cells were lysed and cAMP activity was measured at 405 nm (RLU, relative light units). Concentration-response curves were fit using non-linear regression analysis (GraphPad Prism, version 5.0).

[5] = target: T1, CB2; assay: In-Cell western, PLCβ3 phosphorylation (Gαq) in HEK 293A cells transfected with hCB2; format: cell-based; parameters: expressed in transfected cells; settings: HEK293-A; percentage of the maximal response to the agonist CP 55,940; read-out: Emax (%) ± SEM, PLCβ3 (Gαq)
Description: HEK cells were maintained at 37° C., 5% CO2 in Dulbecco's Modified Eagle's Medium (DMEM) supplemented with 10% Fetal Bovine Serum (FBS) and 10^4 U·mL^−1 Pen/Strep.
For In-Cell™ western analyses, cells were fixed for 10 min at room temperature with 4% paraformaldehyde and washed three times with 0.1 M PBS for 5 min each. Cells were incubated with blocking solution (0.1 M PBS, 5% normal goat serum, 0.3% TritonX-100, in dH2O) for 1 h at room temperature. Cells were treated with primary antibody diluted in antibody dilution buffer [0.1 M PBS, 1% (w/v) BSA, 0.3% TritonX-100, in dH2O] overnight at 4° C. Primary antibody solutions were: pERK1/2(Tyr205/185) (1:200), ERK1/2 (1:200), pPLCβ3(S537) (1:500), PLCβ3 (1:1000), or β-actin (1:2000; Santa Cruz Biotechnology). Cells were washed three times with 0.1 M PBS for 5 min each. Cells were then incubated in IR^CW800dye (1:500; Rockland Immunochemicals, Gilbertsville, Pa., USA) for 1 h at room temperature. Cells were washed three times with 0.1 M PBS for 5 min each. Cells were allowed to air-dry overnight.
In-Cell™ data were collected using the Odyssey Imaging system and software (version 3.0; Li-Cor, Lincoln, Nebr., USA).
Goodness of fit to non-linear regression models was tested in GraphPad (v. 5.0, Prism). […]

[6] = target: T1, CB2; settings: cited from earlier work
[7] = system: dispase-induced PVR; assay: Dispase model of proliferative vitreoretinopathy (PVR): clinical score, histopathology, Iba1 microglia; settings: 10 mg/kg i.p. daily for 7 days
[8] = system: endotoxin-induced uveitis (EIU) model; assay: LPS-induced uveitis (EIU) in mice, intravital microscopy of adherent leukocytes; format: in vivo, BALB/c Mice; settings: CBD-DMH 10 mg/kg i.v. once right after intravitreal LPS; IVM at 5 hours
Description: Two different EIU experimental groups were examined in BALB/c Mice: • Group (A): Intravital microscopy (IVM) at 5 hours after intravitreal injection of saline (control) • Group (B): IVM at 5 hours after induction of EIU and i.v. administration of drug vehicle control (1 time, 0.2 mL 30% ethanol in saline right after intravitreal injection) • Group (C): IVM at 5 hours after induction of EIU and i.v. administration of cannabinoid (1 time, 0.2 mL 10 mg/kg CBD-DMH right after intravitreal injection).
The strain of animals chosen for these experiments was based on preliminary testing conducted and published literature (see, for example: Toguri et al., 2014). […] Depth of anesthesia was monitored via toe pinch test. […]
The technique of intravital microscopy (IVM) was used for in vivo investigation of leukocyte recruitment. The intravital fluorescence video microscope was focused on the iridial microcirculation, which allowed for imaging of the leukocyte-endothelial interactions. […] In each video, leukocyte recruitment was observed and recorded for 30 seconds each. […]
Several videos of each quadrant were recorded for 30 seconds. Leukocyte adhesion was the parameter analyzed. […] The number of adherent leukocytes within each vessel segment was calculated by measuring the diameter and length of vessel segment studied, assuming a cylindrical geometry of blood vessel. […]

[9] = system: experimental models of sepsis; assay: Experimental models of sepsis; format: in vivo

COc1ccc(C(=O)c2c(C)n(CCN3CCOCC3)c3cc(I)ccc23)cc1 [AM630, reference compound]
number of adherent leukocytes to the microvasculature, antagonist alone ([1]; AM630 2.5 mg/kg i.v. alone, p<0.01): significant increase | effect of CB2R antagonist pre-treatment on the agonist's decrease in leukocyte adhesion ([1]; AM630 2.5 mg/kg i.v. prior to CB2R agonist in EIU): abolished

C=C1CC/C=C(\C)CC[C@@H]2[C@@H]1CC2(C)C [Beta-C, β-caryophyllene]
corneal hyperalgesia ([2]; Beta-C, dose not given): appeared to also produce a reduction in hyperalgesia

C=C(C)[C@@H]1CCC(C)=C[C@H]1c1c(O)cc(CCCCC)cc1O [CBD, cannabidiol]
stability [3]: unstable in acidic solutions and when exposed to heat, air and light | water solubility [3]: poorly water-soluble | mode of action on CB2-dependent G protein signalling [4]: partial agonist | Emax [5]: 51.7 ± 7.04%

C=C(C)[C@@H]1CCC(C)=C[C@H]1c1c(O)cc(C(C)(C)CCCCCC)cc1O [CBD-DMH, cannabidiol-dimethylheptyl]
potency relative to CBD ([6]; analgesic and anti-inflammatory effects in animal models): more than 10 fold | psychoactivity [6]: non-psychotropic | activation of CB2 in the absence of the orthosteric agonist CP55940 [4]: does not activate CB2 | effect on potency and efficacy of the orthosteric CB2 agonist CP55940 [4]: enhances the potency and efficacy | mode of action on CB2-dependent G protein signalling [4]: positive allosteric modulator | mean number of blinks for 1 minute to 1 μM capsaicin ([2]; 6 hours post corneal insult, 3 doses topical 5% CBD-DMH, 1-way ANOVA p<0.05): statistically significant decrease in blinks compared to untreated and vehicle treated eyes | corneal hypersensitivity (blinks over 1 minute to 1 μM capsaicin) ([2]; unilateral cauterized eye, 3 doses ocular topical 5% CBD-DMH): eliminates this hypersensitivity; also recorded: reduces hypersensitivity in a comparable matter to ocular topical NSAID; also recorded: eliminated hypersensitivity to capsaicin | clinical score of PVR (scale 0-5) [7]: significantly decreased | histological score of PVR (scale 0-4) [7]: significantly decreased | number of adherent leukocytes [8]: decrease in number of adherent leukocytes

CCCCCCC(C)(C)c1cc(OC)c(C2C=C(CO)C3CC2C3(C)C)c(OC)c1 (stereo not shown) [HU-433]
psychoactivity [6]: no psychoactivity | potency relative to HU-308 ([6]; in vitro and in vivo systems): 2-3 orders of magnitude | potency in mitigating inflammation relative to HU-308 [9]: more potent than HU-308 | number of adherent leukocytes in the iris microcirculation ([1]; HU-433 0.1 mg/kg i.v., 6 hours after intravitreal LPS, 0.1 mg/kg): significantly (p<0.05) reduce; also recorded: fewer adherent leukocytes | leukocyte-endothelial adhesion (inflammation) ([1]; HU-433 i.v. 0.01 and 0.1 mg/kg, 6 hours after induction of EIU): significantly (p<0.01) reduced | local release of inflammatory mediators ([1]; acute EIU): decreases local release of inflammatory mediators | potency in reducing ocular inflammation relative to HU-308 ([1]; experimental uveitis): more potent than HU-308

CCCCCc1cc(O)c2c(c1)OC(C)(C)[C@@H]1CCC(C)=C[C@@H]21 [THC]
stability [3]: unstable in acidic solutions and when exposed to heat, air and light
